This is an account of results in ChEMBL document CHEMBL2163268, “Structure-based design of a novel series of potent, selective inhibitors of the class I phosphatidylinositol 3-kinases” (J Med Chem, 2012).

A short description of data set [1]: in vitro. To be noted: rat, liver microsomes.
Description: Intrinsic clearance in rat liver microsomes
The nature of data set [2]: in vivo. To be noted: rat, iv, 1 mg/kg.
Description: Volume of distribution at steady state in rat at 1 mg/kg, iv
The nature of data set [3]: in vivo. To be noted: rat, plasma, po, 2 mg/kg.
Data set [4] has as its target Phosphatidylinositol 4,5-bisphosphate 3-kinase catalytic subunit beta isoform (Homo sapiens, UniProt P42338). Kind of data set: biochemical.
Description: Inhibition of human N-terminal poly-His tagged-PI3Kbeta expressed in Sf9 baculovirus system co-expressing p85alpha after 20 mins by AlphaScreen assay
The target in data set [5] is Phosphatidylinositol 4,5-bisphosphate 3-kinase catalytic subunit gamma isoform (Homo sapiens, UniProt P48736). Kind of data set: biochemical.
Phosphatidylinositol 4,5-bisphosphate 3-kinase catalytic subunit gamma isoform, sequence (P48736 whole entry, canonical isoform): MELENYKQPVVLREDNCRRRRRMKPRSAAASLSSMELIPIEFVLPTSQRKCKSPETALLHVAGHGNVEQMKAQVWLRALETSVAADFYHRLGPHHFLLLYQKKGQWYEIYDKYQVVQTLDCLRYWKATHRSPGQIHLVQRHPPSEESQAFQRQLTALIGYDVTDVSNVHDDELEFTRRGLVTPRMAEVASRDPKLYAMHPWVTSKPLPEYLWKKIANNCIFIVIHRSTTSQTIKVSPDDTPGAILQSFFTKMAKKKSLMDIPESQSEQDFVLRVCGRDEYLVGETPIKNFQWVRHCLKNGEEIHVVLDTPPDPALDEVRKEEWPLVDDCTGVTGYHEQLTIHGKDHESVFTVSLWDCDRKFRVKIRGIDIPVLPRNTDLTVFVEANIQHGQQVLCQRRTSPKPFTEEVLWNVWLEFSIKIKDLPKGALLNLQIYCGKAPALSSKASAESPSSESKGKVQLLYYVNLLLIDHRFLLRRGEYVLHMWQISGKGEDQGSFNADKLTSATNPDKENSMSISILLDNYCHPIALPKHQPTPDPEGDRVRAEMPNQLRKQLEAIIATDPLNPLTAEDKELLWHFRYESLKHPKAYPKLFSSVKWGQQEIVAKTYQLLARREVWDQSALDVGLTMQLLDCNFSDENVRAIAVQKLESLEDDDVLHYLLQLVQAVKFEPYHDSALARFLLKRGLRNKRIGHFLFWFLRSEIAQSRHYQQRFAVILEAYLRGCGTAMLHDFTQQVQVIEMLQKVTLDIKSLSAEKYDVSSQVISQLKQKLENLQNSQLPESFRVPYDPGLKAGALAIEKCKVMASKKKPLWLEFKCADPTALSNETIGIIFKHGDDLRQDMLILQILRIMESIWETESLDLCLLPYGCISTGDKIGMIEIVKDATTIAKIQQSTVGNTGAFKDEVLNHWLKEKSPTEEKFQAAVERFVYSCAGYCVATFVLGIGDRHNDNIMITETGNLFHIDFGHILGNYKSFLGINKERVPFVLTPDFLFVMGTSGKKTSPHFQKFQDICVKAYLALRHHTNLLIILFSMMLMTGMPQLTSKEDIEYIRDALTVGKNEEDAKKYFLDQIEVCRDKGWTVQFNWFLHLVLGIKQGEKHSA
Description: Inhibition of human N-terminal poly-His tagged-PI3Kgamma expressed in Sf9 baculovirus system co-expressing p85alpha after 20 mins by AlphaScreen assay
A short description of data set [6]: in vivo. To be noted: rat, iv, 1 mg/kg. This is another data set of the same source.
Description: Clearance in rat at 1 mg/kg, iv
Data set [7] can be described thus: in vivo. Conditions: rat, iv, 1 mg/kg. The source holds these as a separate data set.
Description: Mean residence time in rat at 1 mg/kg, iv
Data set [8] is described as follows: Oral bioavailability in rat at 2 mg/kg. To be noted: in vivo. It is filed as ADME, organism-based.
The target in data set [9] is T1, Phosphatidylinositol 4,5-bisphosphate 3-kinase catalytic subunit delta isoform (Homo sapiens, UniProt O00329).
T1 sequence (O00329 whole entry): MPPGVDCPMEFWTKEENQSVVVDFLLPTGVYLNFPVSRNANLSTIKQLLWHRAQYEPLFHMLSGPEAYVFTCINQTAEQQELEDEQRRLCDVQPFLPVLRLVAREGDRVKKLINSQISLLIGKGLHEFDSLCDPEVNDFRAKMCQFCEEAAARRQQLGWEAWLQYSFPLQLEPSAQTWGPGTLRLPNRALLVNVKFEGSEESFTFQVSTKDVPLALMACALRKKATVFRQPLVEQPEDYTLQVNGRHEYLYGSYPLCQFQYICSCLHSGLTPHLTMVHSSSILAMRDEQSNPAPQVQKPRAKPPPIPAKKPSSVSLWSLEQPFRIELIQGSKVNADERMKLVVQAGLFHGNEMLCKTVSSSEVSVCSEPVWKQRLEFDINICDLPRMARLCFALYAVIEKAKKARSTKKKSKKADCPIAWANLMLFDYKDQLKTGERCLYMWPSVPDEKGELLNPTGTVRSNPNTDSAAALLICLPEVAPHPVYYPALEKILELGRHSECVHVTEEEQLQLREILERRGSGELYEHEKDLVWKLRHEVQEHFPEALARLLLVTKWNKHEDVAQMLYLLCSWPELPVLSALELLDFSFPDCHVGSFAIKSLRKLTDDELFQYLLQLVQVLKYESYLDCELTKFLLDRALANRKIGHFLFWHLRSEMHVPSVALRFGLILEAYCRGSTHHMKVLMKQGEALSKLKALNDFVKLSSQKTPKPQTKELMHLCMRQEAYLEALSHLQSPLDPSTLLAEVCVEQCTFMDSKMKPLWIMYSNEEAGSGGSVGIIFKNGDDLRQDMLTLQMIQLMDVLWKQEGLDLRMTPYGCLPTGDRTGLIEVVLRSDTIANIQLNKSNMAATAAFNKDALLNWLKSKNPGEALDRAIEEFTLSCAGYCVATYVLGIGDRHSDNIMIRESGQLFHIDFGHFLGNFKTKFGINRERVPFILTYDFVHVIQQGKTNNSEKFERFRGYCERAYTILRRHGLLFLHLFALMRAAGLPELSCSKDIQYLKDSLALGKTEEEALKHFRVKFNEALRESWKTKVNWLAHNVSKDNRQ
Kind of data set: biochemical.
Description: Inhibition of human N-terminal poly-His tagged-PI3Kdelta expressed in Sf9 baculovirus system co-expressing p85alpha after 20 mins by AlphaScreen assay

For data set [10], the target named is Serine/threonine-protein kinase B-raf (Homo sapiens, UniProt P15056, V600E).
Serine/threonine-protein kinase B-raf, sequence (P15056 2-766 V600E limits assumed): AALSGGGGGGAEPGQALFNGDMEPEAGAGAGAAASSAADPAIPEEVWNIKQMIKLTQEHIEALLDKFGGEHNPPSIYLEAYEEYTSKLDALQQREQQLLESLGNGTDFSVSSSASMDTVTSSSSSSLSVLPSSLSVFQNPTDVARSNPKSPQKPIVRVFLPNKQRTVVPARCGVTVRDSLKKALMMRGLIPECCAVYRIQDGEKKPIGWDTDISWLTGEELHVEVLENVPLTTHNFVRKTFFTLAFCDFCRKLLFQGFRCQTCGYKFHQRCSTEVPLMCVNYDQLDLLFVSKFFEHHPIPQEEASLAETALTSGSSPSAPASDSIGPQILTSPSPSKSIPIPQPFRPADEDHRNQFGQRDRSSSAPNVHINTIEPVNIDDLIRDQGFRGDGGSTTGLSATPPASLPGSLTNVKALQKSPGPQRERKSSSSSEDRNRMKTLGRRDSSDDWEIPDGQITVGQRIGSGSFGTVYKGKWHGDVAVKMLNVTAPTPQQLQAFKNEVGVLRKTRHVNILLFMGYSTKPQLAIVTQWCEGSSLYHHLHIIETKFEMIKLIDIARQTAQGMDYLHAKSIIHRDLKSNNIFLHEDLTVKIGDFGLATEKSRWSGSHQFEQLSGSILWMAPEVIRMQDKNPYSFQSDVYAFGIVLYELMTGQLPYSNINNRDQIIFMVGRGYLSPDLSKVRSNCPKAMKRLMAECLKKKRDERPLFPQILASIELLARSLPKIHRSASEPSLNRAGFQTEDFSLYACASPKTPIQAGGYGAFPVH
Data set [11] has as its target Phosphatidylinositol 4,5-bisphosphate 3-kinase catalytic subunit alpha isoform (Homo sapiens, UniProt P42336). Description: biochemical.
Description: Inhibition of human N-terminal poly-His tagged-PI3Kalpha expressed in Sf9 baculovirus system co-expressing p85alpha after 20 mins by AlphaScreen assay
Data set [12] concerns the target Serine/threonine-protein kinase mTOR (Homo sapiens, UniProt P42345).
Description: Inhibition of recombinant GST-tagged mTOR-mediated 4EBP1 phosphorylation after 90 mins by FRET assay
In data set [13] the target is Phosphatidylinositol 3-kinase catalytic subunit type 3 (Homo sapiens, UniProt Q8NEB9).
Phosphatidylinositol 3-kinase catalytic subunit type 3, sequence (Q8NEB9 whole entry): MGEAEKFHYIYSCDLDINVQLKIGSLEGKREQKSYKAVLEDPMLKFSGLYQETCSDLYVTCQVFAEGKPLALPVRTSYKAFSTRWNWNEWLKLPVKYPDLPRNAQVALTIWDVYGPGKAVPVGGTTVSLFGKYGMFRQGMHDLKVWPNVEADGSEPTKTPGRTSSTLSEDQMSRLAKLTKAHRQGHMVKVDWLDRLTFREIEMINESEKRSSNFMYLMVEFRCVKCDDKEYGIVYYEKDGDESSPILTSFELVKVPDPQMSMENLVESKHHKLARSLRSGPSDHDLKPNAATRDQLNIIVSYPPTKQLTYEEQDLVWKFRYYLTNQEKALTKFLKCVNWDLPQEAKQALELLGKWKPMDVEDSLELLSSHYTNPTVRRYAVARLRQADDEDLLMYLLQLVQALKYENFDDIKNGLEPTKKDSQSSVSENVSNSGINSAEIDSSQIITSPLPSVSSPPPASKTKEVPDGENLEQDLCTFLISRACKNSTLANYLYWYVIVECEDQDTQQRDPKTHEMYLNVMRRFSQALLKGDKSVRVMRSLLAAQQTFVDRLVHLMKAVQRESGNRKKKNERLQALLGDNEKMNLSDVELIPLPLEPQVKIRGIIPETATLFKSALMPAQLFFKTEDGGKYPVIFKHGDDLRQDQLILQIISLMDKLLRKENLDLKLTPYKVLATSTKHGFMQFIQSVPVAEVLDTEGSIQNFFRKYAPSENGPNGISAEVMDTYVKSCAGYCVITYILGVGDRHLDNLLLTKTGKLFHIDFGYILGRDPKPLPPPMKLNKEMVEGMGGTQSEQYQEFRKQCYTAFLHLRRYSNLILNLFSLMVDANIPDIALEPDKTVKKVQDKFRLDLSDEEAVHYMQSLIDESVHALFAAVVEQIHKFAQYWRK
Description: Inhibition of human VPS34 after 30 mins by fluorescence-based immunoassay

Structures are written as SMILES. A value given as a limit tells only on which side of the number the result lay.

By microsomal CLint is commonly meant the rate of metabolic loss divided by the concentration. Broadly, the Vd is a proportionality between amount in the body and measured concentration, not a real space. A low value points to confinement near the circulation. The term AUC denotes concentration integrated over time. Broadly, the Ki is the dissociation constant of the complex between target and ligand, obtained from inhibition or displacement. Low readings indicate a stronger hold on the target, high ones a looser hold on the target. As usually defined, the clearance is the volume of plasma or blood freed of the substance per unit of time. Lower therefore signals inefficient removal. By MRT is commonly meant the average time that molecules of a dose stay in the body. The term bioavailability denotes the share of a dose that reaches the circulation, judged against a reference dose that is usually intravenous. A higher bioavailability goes with much systemic uptake. The term IC50 denotes the concentration that gives 50% inhibition.

Phosphatidylinositol 4,5-bisphosphate 3-kinase catalytic subunit alpha isoform, sequence (P42336 whole entry, canonical isoform): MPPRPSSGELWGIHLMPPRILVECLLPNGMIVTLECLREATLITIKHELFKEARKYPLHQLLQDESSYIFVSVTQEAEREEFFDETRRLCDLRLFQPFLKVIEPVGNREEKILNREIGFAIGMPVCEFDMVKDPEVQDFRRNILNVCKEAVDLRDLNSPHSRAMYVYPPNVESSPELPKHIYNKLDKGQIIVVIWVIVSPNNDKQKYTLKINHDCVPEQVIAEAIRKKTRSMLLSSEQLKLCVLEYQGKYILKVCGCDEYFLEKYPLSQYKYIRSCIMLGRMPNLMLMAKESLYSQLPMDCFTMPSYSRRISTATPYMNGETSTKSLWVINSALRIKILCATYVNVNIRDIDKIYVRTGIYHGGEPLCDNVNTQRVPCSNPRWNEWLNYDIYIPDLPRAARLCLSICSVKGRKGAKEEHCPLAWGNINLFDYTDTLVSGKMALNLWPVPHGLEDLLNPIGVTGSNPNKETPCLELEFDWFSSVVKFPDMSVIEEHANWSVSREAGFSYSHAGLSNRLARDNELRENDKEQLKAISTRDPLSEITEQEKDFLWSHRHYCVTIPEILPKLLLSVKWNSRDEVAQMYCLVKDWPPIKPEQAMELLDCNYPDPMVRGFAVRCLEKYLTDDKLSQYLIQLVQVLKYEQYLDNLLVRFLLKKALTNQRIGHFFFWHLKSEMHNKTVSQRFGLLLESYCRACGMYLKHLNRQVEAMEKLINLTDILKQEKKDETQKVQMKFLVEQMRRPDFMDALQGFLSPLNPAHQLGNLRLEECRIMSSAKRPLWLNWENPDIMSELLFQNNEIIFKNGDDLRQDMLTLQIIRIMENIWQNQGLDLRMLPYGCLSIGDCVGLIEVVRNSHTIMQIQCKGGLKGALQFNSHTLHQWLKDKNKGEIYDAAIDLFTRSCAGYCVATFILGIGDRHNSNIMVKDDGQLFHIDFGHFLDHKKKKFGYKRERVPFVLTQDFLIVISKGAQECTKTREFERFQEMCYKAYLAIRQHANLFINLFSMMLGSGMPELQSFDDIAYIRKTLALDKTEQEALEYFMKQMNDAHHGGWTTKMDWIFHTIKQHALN
Phosphatidylinositol 4,5-bisphosphate 3-kinase catalytic subunit beta isoform, sequence (P42338 whole entry, canonical isoform): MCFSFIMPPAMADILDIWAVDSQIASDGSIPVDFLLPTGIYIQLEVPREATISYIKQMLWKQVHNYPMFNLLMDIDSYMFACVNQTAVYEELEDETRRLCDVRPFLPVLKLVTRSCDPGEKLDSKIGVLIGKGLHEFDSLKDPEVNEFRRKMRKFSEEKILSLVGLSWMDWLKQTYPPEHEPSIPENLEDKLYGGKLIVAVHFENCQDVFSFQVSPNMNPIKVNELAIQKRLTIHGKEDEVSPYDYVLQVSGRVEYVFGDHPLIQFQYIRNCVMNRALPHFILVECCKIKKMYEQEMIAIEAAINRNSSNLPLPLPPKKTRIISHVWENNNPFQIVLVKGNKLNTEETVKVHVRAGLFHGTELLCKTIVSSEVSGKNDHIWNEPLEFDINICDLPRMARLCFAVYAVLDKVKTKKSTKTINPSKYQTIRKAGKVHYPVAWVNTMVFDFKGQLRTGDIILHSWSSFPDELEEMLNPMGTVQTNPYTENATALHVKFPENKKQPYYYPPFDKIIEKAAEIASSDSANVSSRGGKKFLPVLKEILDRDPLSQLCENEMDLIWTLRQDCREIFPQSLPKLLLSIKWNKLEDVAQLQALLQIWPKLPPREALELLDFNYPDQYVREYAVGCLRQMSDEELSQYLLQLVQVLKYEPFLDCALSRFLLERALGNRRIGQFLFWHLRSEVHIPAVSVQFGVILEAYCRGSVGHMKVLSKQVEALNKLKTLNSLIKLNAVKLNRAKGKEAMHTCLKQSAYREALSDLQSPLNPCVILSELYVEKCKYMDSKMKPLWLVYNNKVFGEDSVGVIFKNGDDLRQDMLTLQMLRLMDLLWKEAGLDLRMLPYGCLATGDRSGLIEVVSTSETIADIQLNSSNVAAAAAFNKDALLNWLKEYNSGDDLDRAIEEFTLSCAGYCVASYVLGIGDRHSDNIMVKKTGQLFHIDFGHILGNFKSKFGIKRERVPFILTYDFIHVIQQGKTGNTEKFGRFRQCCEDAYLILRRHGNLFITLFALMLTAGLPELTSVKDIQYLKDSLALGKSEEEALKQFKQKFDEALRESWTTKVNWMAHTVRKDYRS

In data set [1], `COc1ccc(Nc2ncc(CN3CCC(S(C)(=O)=O)CC3)cc2-c2nc(C)nc(N)n2)cn1` registered a microsomal CLint of 20 µL/min/mg. This compound yielded a Vd in [2] of 2.9 L/kg. Further, the AUC in [3] came out at 0.33 µM·h. Besides, the Ki came out at 5 nM in [4], 9 nM in [5] and 3 nM in data set [9]. Also, the clearance in [6] was 41.7 mL/min/kg. The same compound yielded an MRT in data set [7] of 1.3 h. In data set [8], this compound registered a bioavailability of 18%.
In the case of `Cc1nc(N)nc(-c2cccnc2Nc2cccc(O)c2)n1`, the microsomal CLint in [1] came to 80 µL/min/mg. The compound also displayed an IC50 in [10] greater than 1000 nM. For the same compound, the inhibitory constant (Ki) in data set [4] came out at 3 nM; in data set [9], 9 nM.
Compound `Nc1cc(-c2cccnc2Nc2cccc3[nH]ncc23)nc(C(F)(F)F)n1` registered an intrinsic clearance (microsomal CLint) in [1] of 76 µL/min/mg. Also, the IC50 was greater than 1000 nM in [10] and greater than 10000 nM in [12]. Besides, the Ki was 1300 nM in data set [4], 3600 nM in data set [5], 3200 nM in data set [11] and greater than 10000 nM in [9].
In data set [1], `Cc1cc(-c2cccnc2Oc2cccc3[nH]ccc23)nc(N)n1` registered a microsomal CLint of 218 µL/min/mg. Further, the IC50 in data set [10] is greater than 1000 nM; in [12], greater than 10000 nM. The Ki in [4], in data set [5], in data set [11] and in data set [9] was greater than 10000 nM in each case.
On to `COc1ccc(Nc2ncccc2-c2nc(C)nc3nc[nH]c23)cn1`, for which, in data set [1], the microsomal CLint came to 68 µL/min/mg. The compound also yielded an IC50 in [10] greater than 1000 nM. In addition, the figures for the inhibition constant (Ki) in [4] and in [5] were 45 nM and 12 nM, respectively.
`Cc1cc(-c2cccnc2Nc2cccc(O)c2)nc(N)n1` came in with an intrinsic metabolic clearance (microsomal CLint) in data set [1] of 118 µL/min/mg. Moreover, the half-inhibitory concentration (IC50) in data set [10] was greater than 1000 nM; in data set [12], greater than 10000 nM. In addition, the Ki was greater than 10000 nM in [4], 2600 nM in [5], 4900 nM in [11] and 6000 nM in [9].
Take `COc1ccc(Nc2ncncc2-c2nc(C)nc(N)n2)cn1`: in data set [1], the microsomal CLint turned out to be 110 µL/min/mg. For the same compound, in data set [10], the IC50 is greater than 1000 nM. Also, the Ki in data set [4] is 81 nM; in data set [5], 59 nM; in data set [11] it was 120 nM; in data set [9], 62 nM.
Consider `Cc1nc(N)nc(-c2cccnc2Nc2cccc3[nH]ccc23)n1`, for which the microsomal CLint in data set [1] is 110 µL/min/mg. In addition, the values for the IC50 in data set [10] and in data set [13] were greater than 1000 nM and greater than 9000 nM, respectively. Moreover, the Ki in data set [4] turned out to be 9 nM; in data set [5] it was 45 nM; in [9], 25 nM.
In [1], `COc1ccc(Nc2ncc(Cc3ccc(S(C)(=O)=O)cc3)cc2-c2nc(C)nc(N)n2)cn1` came in with a microsomal CLint of 59 µL/min/mg. In [2], this compound had a Vd of 2.1 L/kg. Also, the AUC in data set [3] is 0.04 µM·h. In addition, the Ki amounted to 7 nM in data set [5] and 1 nM in data set [9]. The same compound had a clearance in data set [6] of 30 mL/min/kg. In [7], this compound gave a mean residence time (MRT) of 1.2 h. In data set [8], this compound displayed a bioavailability of 2%.
Turning to `Cc1nc(NCC#N)nc(-n2c(Nc3cccc(O)c3)nc3ccccc32)n1`, the intrinsic metabolic clearance (microsomal CLint) in data set [1] was 394 µL/min/mg. This compound had a half-inhibitory concentration (IC50) in data set [10] of 1200 nM. In addition, the Ki in data set [4] turned out to be 43 nM; in data set [5] it was 69 nM; in data set [11], 16 nM; in data set [9] it was 11 nM.
Compound `COc1ccc(Nc2ccccc2-c2nc(C)nc(N)n2)cn1` showed a microsomal CLint in data set [1] of 190 µL/min/mg. The half-maximal inhibitory concentration (IC50) in data set [10] was greater than 1000 nM. The Ki in [4] stood at 580 nM; in data set [5], 380 nM; in data set [11], 640 nM; in [9], 310 nM.
In turn, `Cc1nc(-c2cccnc2Nc2cccc3[nH]ncc23)c2nc[nH]c2n1` registered an intrinsic metabolic clearance (microsomal CLint) in data set [1] of 44 µL/min/mg. The IC50 in data set [10] is greater than 1000 nM. The Ki in [5] was determined as 12 nM; in [9], 350 nM.
For `Cc1nc(N)cc(-c2cccnc2Nc2cccc(O)c2)n1`, the microsomal CLint in [1] came to 62 µL/min/mg. In addition, the figures for the IC50 in [10] and in data set [12] were greater than 1000 nM and 360 nM, respectively. Further, the Ki in data set [4] turned out to be 35 nM; in [5], 51 nM; in [11], 28 nM; in data set [9], 56 nM.
`Cc1nc(N)nc(-c2cccnc2Nc2cccc3[nH]ncc23)n1`: the microsomal CLint in [1] was 65 µL/min/mg. For the same compound, the IC50 is greater than 1000 nM in data set [10], greater than 10000 nM in data set [12] and greater than 9000 nM in [13]. For the same compound, the Ki came out at 51 nM in data set [4], 88 nM in data set [5], 92 nM in [11] and 130 nM in [9].
The compound `COc1ccc(Nc2nccnc2-c2cc(N)nc(C)n2)cn1` showed a microsomal CLint in [1] of 72 µL/min/mg. In [10], this compound came in with an IC50 greater than 1000 nM. The Ki was found to be 130 nM in data set [4], 58 nM in [5], 120 nM in data set [11] and 130 nM in [9].
The compound `COc1ccc(Nc2ncc(CC3CCN(S(C)(=O)=O)CC3)cc2-c2nc(C)nc(N)n2)cn1` returned a microsomal CLint in data set [1] of 111 µL/min/mg. Also, the Vd in [2] was found to be 2.7 L/kg. The exposure (AUC) in data set [3] came out at 0.04 µM·h. Also, the values for the Ki in [4], in data set [5] and in data set [9] were 15 nM, 8 nM and 4 nM, respectively. This compound also gave a clearance in [6] of 46.7 mL/min/kg. Besides, the MRT in data set [7] amounted to 1 h. For the same compound, the bioavailability in [8] worked out at 3%.
Turning to `Cc1nc(-c2cccnc2Nc2cccc3n[nH]cc23)c2c[nH]nc2n1`, the microsomal CLint in data set [1] came out at 56 µL/min/mg. The half-maximal inhibitory concentration (IC50) in data set [10] is greater than 1000 nM; in [12], greater than 10000 nM. Also, the Ki in data set [4] is 2300 nM; in [5], 450 nM; in data set [11], 1700 nM; in data set [9] it was 5000 nM.
`COc1ccc(N(C)c2ncccc2-c2nc(C)nc(N)n2)cn1` gave a microsomal CLint in data set [1] of 41 µL/min/mg. Further, the IC50 is greater than 1000 nM in data set [10] and greater than 10000 nM in data set [12]. Also, the Ki in [4], in [5], in data set [11] and in data set [9] was greater than 10000 nM throughout.
In data set [1], `Cc1ncnc(-n2c(Nc3cccc(O)c3)nc3ccccc32)n1` had a microsomal CLint of 218 µL/min/mg. Moreover, the IC50 in [10] was greater than 1000 nM; in [12], 7 nM. The inhibition constant (Ki) in [4] is 4 nM; in data set [5], 4 nM; in [11] it was 2 nM; in data set [9] it was 3 nM.
In turn, `COc1ccc(Nc2ncccc2-c2nc(C)nc(N)n2)cn1` came in with a microsomal CLint in [1] of 51 µL/min/mg. The IC50 in data set [10] is greater than 1000 nM. Further, the figures for the inhibitory constant (Ki) in data set [4], in data set [5] and in data set [9] were 23 nM, 29 nM and 37 nM, respectively.
Compound `COc1ccc(Nc2nccnc2-c2nc(C)nc(N)n2)cn1` came in with a microsomal CLint in [1] of 41 µL/min/mg. The same compound came in with an IC50 in data set [10] greater than 1000 nM. The inhibition constant (Ki) came to 740 nM in [4], 90 nM in data set [5], 520 nM in data set [11] and 300 nM in [9].
Turning to `Cc1nc(N)c(F)c(-c2cccnc2Nc2cccc3[nH]ncc23)n1`, the microsomal CLint in data set [1] is 71 µL/min/mg. Besides, the IC50 in [10] is greater than 1000 nM; in data set [12], greater than 10000 nM. The Ki in data set [4] worked out at 990 nM; in data set [5], 330 nM; in [11], 930 nM; in data set [9], 810 nM.
`Cc1nc(N)cc(-c2cccnc2Nc2cccc3[nH]ncc23)n1` showed a microsomal CLint in [1] of 75 µL/min/mg. For the same compound, the values for the IC50 in data set [10] and in data set [12] were greater than 1000 nM and greater than 10000 nM, respectively. Also, the Ki in data set [4] was 110 nM; in data set [5], 91 nM; in data set [11] it was 150 nM; in [9] it was 370 nM.
